Values quoted from earlier work in patent US6423677B1, “Cleaner/degreaser concentrate compositions” (Buckeye International, Inc., priority 1995, dated 2002).

Details: in water; for aqueous solubility: solvents not useful in the invention

## CC(O)COc1ccccc1 (centres unmarked) [1-phenoxy-2-propanol]
  aqueous ambient temperature solubility: 1.1 wt. %

## CC(C)CC(=O)CC(C)C [2,6-dimethyl-4-heptanone]
  aqueous solubility: 0.05 wt. %

## CCCCC(CC)COCCO (centres unmarked) [2-(2-ethylhexoxy)-ethanol]
  aqueous solubility: 0.095 wt. %

## OCCOc1ccccc1 [2-phenoxyethanol]
  aqueous ambient temperature solubility: 2.3 wt. %

## CCN(CC)c1ccccc1 [N,N-diethylaniline]
  aqueous ambient temperature solubility: 1.4 wt. %

## CN1CCCC1=O [N-methyl pyrrolidone]
  aqueous solubility: infinite

## c1ccc(N2CCOCC2)cc1 [N-phenylmorpholine]
  aqueous ambient temperature solubility: 1.0 wt. %

## CC(=O)c1ccccc1 [acetophenone]
  aqueous ambient temperature solubility: 0.5 wt. %

## O=Cc1ccccc1 [benzaldehyde]
  aqueous ambient temperature solubility: 0.3 wt. %

## OCc1ccccc1 [benzyl alcohol]
  aqueous ambient temperature solubility: 4.4 wt. %

## O=C1CCCCC1 [cyclohexanone]
  aqueous ambient temperature solubility: 2.3 wt. %

## CCOC(=O)CCCCC(=O)OCC [diethyl adipate]
  aqueous ambient temperature solubility: 0.43 wt. %

## CCOC(=O)CCCC(=O)OCC [diethyl glutarate]
  aqueous ambient temperature solubility: 0.88 wt. %

## CCOC(=O)CC(=O)OCC [diethyl malonate]
  aqueous ambient temperature solubility: 2.08 wt. %

## CC1=CC(=O)CC(C)(C)C1 [isophorone]
  aqueous ambient temperature solubility: 1.2 wt. %

## CC(=O)CC(C)C [methylisobutyl ketone]
  aqueous ambient temperature solubility: 2.0 wt. %

## CCCCCOC(C)=O [n-amyl acetate]
  aqueous ambient temperature solubility: 0.25 wt. %

## CCCCCO [n-amyl alcohol]
  aqueous ambient temperature solubility: 2.7 wt. %

## CCCCOC(C)=O [n-butyl acetate]
  aqueous ambient temperature solubility: 0.7 wt. %

## CC[N+](=O)[O-] [nitroethane]
  aqueous ambient temperature solubility: 4.5 wt. %

## CC1COC(=O)O1 (centres unmarked) [propylene carbonate]
  aqueous solubility: 19.6 wt. %

## COCC(C)OC(C)=O (centres unmarked) [propylene glycol monomethyl ether acetate]
  aqueous solubility: 16.5 wt. %

## OCCc1ccccc1 [β-phenylethanol]
  aqueous ambient temperature solubility: 1.6 wt. %
